Reference: PMC7037682, “Herb–Drug Interaction of Red Ginseng Extract and Ginsenoside Rc with Valsartan in Rats” (Molecules, 2020)
Read-outs that look alike come from different tables or passages of the source. Each block holds one compound with its values, some of them ahead of it.

Tests used:
OAT1 = target: T1, OAT1 (Homo sapiens, UniProt Q4U2R8); experiment: Inhibition of OAT1-mediated [3H]PAH uptake in HEK293-OAT1 cells
T1 sequence (Q4U2R8 1-563): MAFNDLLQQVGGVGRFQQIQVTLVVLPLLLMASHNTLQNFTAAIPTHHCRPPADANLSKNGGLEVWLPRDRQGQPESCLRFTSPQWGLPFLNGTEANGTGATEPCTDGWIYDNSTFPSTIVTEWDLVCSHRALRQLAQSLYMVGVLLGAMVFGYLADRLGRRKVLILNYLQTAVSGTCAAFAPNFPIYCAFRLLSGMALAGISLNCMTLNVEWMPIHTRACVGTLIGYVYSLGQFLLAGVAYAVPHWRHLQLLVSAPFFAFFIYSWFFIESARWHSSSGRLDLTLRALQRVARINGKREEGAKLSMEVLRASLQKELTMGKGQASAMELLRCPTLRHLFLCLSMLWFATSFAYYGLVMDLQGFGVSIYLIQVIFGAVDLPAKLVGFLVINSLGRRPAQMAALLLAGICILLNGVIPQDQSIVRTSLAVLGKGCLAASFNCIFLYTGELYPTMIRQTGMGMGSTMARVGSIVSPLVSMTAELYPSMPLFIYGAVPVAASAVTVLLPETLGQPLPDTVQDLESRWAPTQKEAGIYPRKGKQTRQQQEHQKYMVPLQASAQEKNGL
Experimental: HEK293 cells overexpressing the OCT1, OCT2, OAT1, OAT3, OATP1B1, and OATP1B3 transporters (HEK293-OCT1, -OCT2, -OAT1, -OAT3, -OATP1B1, and -OATP1B3, respectively) and HEK293-mock cells (Corning Life Sciences; Woburn, MA, USA) were used and characterized as previously described.
HEK293 cells overexpressing drug transporters and HEK293-mock cells were seeded in poly-D-lysine-coated 96-well plates at a density of 10^5 cells/well and were cultured in DMEM supplemented with 10% FBS, 5 mM non-essential amino acids, and 2 mM sodium butyrate in a humidified atmosphere with 8% CO2 at 37 °C.
Then the uptake of probe substrates into HEK293-mock cells and HEK293-OCT1, -OCT2, -OAT1, -OAT3, -OATP1B1, and -OATP1B3 cells in the presence and absence of typical inhibitor or each ginsenoside with previously described concentration range was measured for 5 min. Immediately after placing the plates on ice, the cells were washed three times with 100 μL of ice-cold HBSS, followed by lysing with 50 μL of 10% SDS solution and mixing with 150 μL of Optiphase cocktail solution (Perkin Elmer Inc., Boston, MA, USA). The radioactivity of the probe substrates in the cells was determined using a liquid scintillation counter.
In the inhibition studies, the uptake rate of substrate by HEK293 cells overexpressing the respective transporters was used as the control (100%) and the uptake rate of substrates in the presence of typical inhibitors or ginsenosides expressed as a percentage of the control. The inhibition data were fitted to an inhibitory effect model using Sigma plot (version 10.0; Systat Software Inc., San Jose, CA, USA). IC50 value indicated the half-maximal inhibitory concentration of the inhibitor.

[1] = Protein binding in rat plasma by rapid equilibrium dialysis; assay type: in vitro ADME; conditions: rapid equilibrium dialysis 4 h 37 °C
Experimental: (§1) The protein binding of Rb1, Rb2, and Rc (1 μM) in rat plasma and liver homogenate was determined using a rapid equilibrium dialysis kit (ThermoFisher Scientific Korea, Seoul, Korea) according to the manufacturer’s instructions. Briefly, 100 μL of rat plasma and 10% liver homogenate samples containing Rb1, Rb2, or Rc (1 μM) were added to the sample chamber of a semipermeable membrane (molecular weight cut-off 8000 Da) and 300 μL of HBSS was added to the outer buffer chamber. Four hours after incubation at 37 °C on a shaking incubator at 300 rpm, aliquots (50 μL) were collected from both the sample and buffer chambers and treated with equal volumes of fresh HBSS and plasma, respectively, to match the sample matrices. The matrix-matched samples (100 μL) were mixed with 300 μL of 80% ice-cold methanol containing berberine 0.05 ng/mL and 0.1% formic acid for 15 min.
Plasma protein binding was calculated using the following equation [47]. (1) Undiluted free drug fraction fu= Drug concentration in buffer chamber/Drug concentration in plasma chamber

[2] = Protein binding in rat liver homogenate by rapid equilibrium dialysis; assay type: in vitro ADME; conditions: 10% liver homogenate, rat liver homogenate (10%)
Experimental: as §1
Tissue protein binding was calculated using the following equations, and a dilution factor (D as a value of 10) was used since we used 10% liver homognenates. (2) Diluted free drug fraction fu^′= Drug concentration in buffer chamber/Drug concentration in liver homogenate chamber (3) Undiluted free drug fraction fu= 1/D/1/fu^′−1+1/D= 0.1/1/fu^′−1+0.1

[3] = repeated red ginseng extract 3 g/day ref 14, 41; cited from earlier work
UGT1A9 = conditions: cited from earlier work; for IC50: read-out: IC50 UGT1A9
OATP1B3 = target: T2, OATP1B3 (Homo sapiens, UniProt Q9NPD5); experiment: Inhibition of OATP1B3-mediated valsartan uptake in HEK293-OATP1B3 cells; assay type: cell-based; set-up: host or cells: HEK293; conditions: 5 μM valsartan, 5 min
T2 sequence (Q9NPD5 1-702): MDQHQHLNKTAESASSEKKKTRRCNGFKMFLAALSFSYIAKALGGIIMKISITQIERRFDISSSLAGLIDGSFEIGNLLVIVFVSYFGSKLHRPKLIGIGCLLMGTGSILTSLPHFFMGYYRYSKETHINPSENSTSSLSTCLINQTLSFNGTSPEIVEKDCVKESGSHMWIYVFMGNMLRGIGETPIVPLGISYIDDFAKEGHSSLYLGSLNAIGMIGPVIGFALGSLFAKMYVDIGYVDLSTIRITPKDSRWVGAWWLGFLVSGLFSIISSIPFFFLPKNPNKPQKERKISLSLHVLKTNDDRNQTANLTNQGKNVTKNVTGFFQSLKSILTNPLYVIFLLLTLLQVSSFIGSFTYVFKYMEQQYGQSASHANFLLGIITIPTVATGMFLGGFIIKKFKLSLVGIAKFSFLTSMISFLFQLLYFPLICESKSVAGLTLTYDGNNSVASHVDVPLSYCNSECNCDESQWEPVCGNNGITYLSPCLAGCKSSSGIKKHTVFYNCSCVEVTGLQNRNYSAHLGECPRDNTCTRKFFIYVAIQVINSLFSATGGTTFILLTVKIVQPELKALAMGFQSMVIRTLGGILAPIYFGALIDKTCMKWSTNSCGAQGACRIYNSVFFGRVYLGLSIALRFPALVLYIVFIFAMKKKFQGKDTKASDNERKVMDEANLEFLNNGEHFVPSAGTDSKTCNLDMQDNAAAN
Experimental: Transporter mediated uptake of probe substrates or valsartan was calculated by subtracting the uptake rate of probe substrates or valsartan into HEK293-mock cells from that into HEK293 cells expressing respective transporters.

[4] = read-out: IC50 OAT1, HEK293-OAT1, 0.1 μM [3H]PAH uptake, 5 min

- IC50 (OAT1; [4]): > 100 µM
Structure (SMILES): CC(C)=CCC[C@](C)(O[C@@H]1O[C@H](CO)[C@@H](O)[C@H](O)[C@H]1O)[C@H]1CC[C@]2(C)[C@@H]1[C@H](O)C[C@@H]1[C@@]3(C)CC[C@H](O)C(C)(C)[C@@H]3CC[C@]12C [Compound K, compound K]

- IC50 (OAT1): > 100 µM
- fraction unbound at 4 h, 1 μM [1]: 0.002
- fraction unbound at 4 h, 1 μM [2]: 0.004
- IC50 (OATP1B3): 4.1 µM
Structure (SMILES): CC(C)=CCC[C@](C)(O[C@@H]1O[C@H](CO[C@@H]2O[C@H](CO)[C@@H](O)[C@H](O)[C@H]2O)[C@@H](O)[C@H](O)[C@H]1O)[C@H]1CC[C@]2(C)[C@@H]1[C@H](O)C[C@@H]1[C@@]3(C)CC[C@H](O[C@@H]4O[C@H](CO)[C@@H](O)[C@H](O)[C@H]4O[C@@H]4O[C@H](CO)[C@@H](O)[C@H](O)[C@H]4O)C(C)(C)[C@@H]3CC[C@]12C [Rb1, ginsenoside Rb1]
- maximum concentration in human blood [3]: 6.2 to 12.7 nM
- IC50 (UGT1A9): 21.3 µM

- IC50 (OAT1): > 100 µM
Structure (SMILES): CC(C)=CCC[C@](C)(O[C@@H]1O[C@H](CO)[C@@H](O)[C@H](O)[C@H]1O)[C@H]1CC[C@]2(C)[C@@H]1[C@H](O)C[C@@H]1[C@@]3(C)CC[C@H](O[C@@H]4O[C@H](CO)[C@@H](O)[C@H](O)[C@H]4O[C@@H]4O[C@H](CO)[C@@H](O)[C@H](O)[C@H]4O)C(C)(C)[C@@H]3CC[C@]12C [Rd, ginsenoside Rd]

- IC50 (OAT1): > 100 µM
Structure (SMILES): CC(C)=CCC[C@](C)(O[C@@H]1O[C@H](CO)[C@@H](O)[C@H](O)[C@H]1O)[C@H]1CC[C@]2(C)[C@@H]1[C@H](O)C[C@@H]1[C@@]3(C)CC[C@H](O)C(C)(C)[C@@H]3[C@@H](O[C@@H]3O[C@H](CO)[C@@H](O)[C@H](O)[C@H]3O[C@@H]3O[C@@H](C)[C@H](O)[C@@H](O)[C@H]3O)C[C@]12C [Re, ginsenoside Re]
- IC50 UGT1A9 (UGT1A9): did not inhibit

Structure (SMILES): CC(C)=CCC[C@](C)(O)[C@H]1CC[C@]2(C)[C@@H]1[C@H](O)C[C@@H]1[C@@]3(C)CC[C@H](O[C@@H]4O[C@H](CO)[C@@H](O)[C@H](O)[C@H]4O)C(C)(C)[C@@H]3CC[C@]12C [Rh2, ginsenoside Rh2]
- IC50 (OAT1): > 100 µM

- IC50 (OAT1): > 100 µM
- fraction unbound at 4 h, 1 μM [1]: 0.001 ± 7.01e-08
- fraction unbound at 4 h, 1 μM [2]: 0.005
- IC50 (OATP1B3): 1.9 µM
Structure (SMILES): CC(C)=CCC[C@](C)(O[C@@H]1O[C@H](CO[C@@H]2O[C@@H](CO)[C@H](O)[C@H]2O)[C@@H](O)[C@H](O)[C@H]1O)[C@H]1CC[C@]2(C)[C@@H]1[C@H](O)C[C@@H]1[C@@]3(C)CC[C@H](O[C@@H]4O[C@H](CO)[C@@H](O)[C@H](O)[C@H]4O[C@@H]4O[C@H](CO)[C@@H](O)[C@H](O)[C@H]4O)C(C)(C)[C@@H]3CC[C@]12C [Rc, ginsenoside Rc]
- maximum concentration in human blood [3]: 6.2 to 12.7 nM

Structure (SMILES): CC(C)=CCCC(C)(O)[C@H]1CC[C@]2(C)[C@@H]1[C@H](O)C[C@@H]1[C@@]3(C)CC[C@H](O)C(C)(C)[C@@H]3CC[C@]12C (stereo in doubt) [PPD, protopanaxadiol]
- IC50 (OAT1; [4]): > 100 µM

- IC50 (OAT1): > 100 µM
Structure (SMILES): CC(C)=CCC[C@](C)(O[C@@H]1O[C@H](CO)[C@@H](O)[C@H](O)[C@H]1O)[C@H]1CC[C@]2(C)[C@@H]1[C@H](O)C[C@@H]1[C@@]3(C)CC[C@H](O)C(C)(C)[C@@H]3[C@@H](O[C@@H]3O[C@H](CO)[C@@H](O)[C@H](O)[C@H]3O)C[C@]12C [Rg1, ginsenoside Rg1]
- IC50 UGT1A9 (UGT1A9): did not inhibit

Structure (SMILES): CC(C)=CCC[C@](C)(O)[C@H]1CC[C@]2(C)[C@@H]1[C@H](O)C[C@@H]1[C@@]3(C)CC[C@H](O)C(C)(C)[C@@H]3[C@@H](O[C@@H]3O[C@H](CO)[C@@H](O)[C@H](O)[C@H]3O)C[C@]12C [Rh1, ginsenoside Rh1]
- IC50 (OAT1): > 100 µM

- IC50 (OAT1): > 100 µM
- fraction unbound at 4 h, 1 μM [1]: 0.001 ± 4e-08
- fraction unbound at 4 h, 1 μM [2]: 0.004
- IC50 (OATP1B3): 5.1 µM
Structure (SMILES): CC(C)=CCC[C@](C)(O[C@@H]1O[C@H](CO[C@@H]2OC[C@H](O)[C@H](O)[C@H]2O)[C@@H](O)[C@H](O)[C@H]1O)[C@H]1CC[C@]2(C)[C@@H]1[C@H](O)C[C@@H]1[C@@]3(C)CC[C@H](O[C@@H]4O[C@H](CO)[C@@H](O)[C@H](O)[C@H]4O[C@@H]4O[C@H](CO)[C@@H](O)[C@H](O)[C@H]4O)C(C)(C)[C@@H]3CC[C@]12C [Rb2, ginsenoside Rb2]
- maximum concentration in human blood [3]: 6.2 to 12.7 nM

Structure (SMILES): CC(C)=CCC[C@](C)(O)[C@H]1CC[C@]2(C)[C@@H]1[C@H](O)C[C@@H]1[C@@]3(C)CC[C@H](O)C(C)(C)[C@@H]3[C@@H](O)C[C@]12C [PPT, protopanaxatriol]
- IC50 (OAT1; [4]): > 100 µM

Structure (SMILES): CC(C)=CCC[C@](C)(O)[C@H]1CC[C@]2(C)[C@@H]1[C@H](O)C[C@@H]1[C@@]3(C)CC[C@H](O[C@@H]4O[C@H](CO)[C@@H](O)[C@H](O)[C@H]4O[C@@H]4O[C@H](CO)[C@@H](O)[C@H](O)[C@H]4O)C(C)(C)[C@@H]3CC[C@]12C [Rg3, ginsenoside Rg3]
- IC50 (OAT1; [4]): > 100 µM
- IC50 (UGT1A9): 15.1 µM
